{
  "source": "paper PMC8719060",
  "about": "“Characterization of a Novel Chromosome-Encoded AmpC β-Lactamase Gene, blaPRC–1, in an Isolate of a Newly Classified Pseudomonas Species, Pseudomonas wenzhouensis A20, From Animal Farm Sewage” (Frontiers in Microbiology, 2021)",
  "target": "PRC-1 (Pseudomonas wenzhouensis, UniProt Z9ZEF5EQX5)",
  "sequence (Z9ZEF5EQX5 23-379 limits assumed)": "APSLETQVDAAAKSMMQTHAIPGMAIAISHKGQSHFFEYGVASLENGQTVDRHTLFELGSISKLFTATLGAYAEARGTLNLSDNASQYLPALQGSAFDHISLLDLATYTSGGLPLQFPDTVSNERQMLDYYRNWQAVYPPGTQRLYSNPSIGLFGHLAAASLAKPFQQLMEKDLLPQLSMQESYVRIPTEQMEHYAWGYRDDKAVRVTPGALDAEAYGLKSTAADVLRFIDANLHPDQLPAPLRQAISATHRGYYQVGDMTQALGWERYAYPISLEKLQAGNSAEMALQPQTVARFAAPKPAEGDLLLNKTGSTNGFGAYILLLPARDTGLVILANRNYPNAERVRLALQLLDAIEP",
  "assay": "nitrocefin hydrolysis inhibition, spectrophotometry",
  "assay_type": "biochemical",
  "conditions": "100 μM nitrocefin, 5 min preincubation, 37°C; covalent",
  "data": [
    {"compound": "NC(=O)[C@@H]1CC[C@@H]2CN1C(=O)N2OS(=O)(=O)O", "note": "[avibactam]", "values": [
      {"measurement": "IC50", "result": 0.000392, "unit": "µM"}
    ]},
    {"compound": "O=C(O)[C@H]1/C(=C/CO)O[C@@H]2CC(=O)N21", "note": "[clavulanic acid]", "values": [
      {"measurement": "IC50", "result": 23.4, "unit": "µM"}
    ]}
  ]
}
